The record followed here is patent US6506576B2 (priority 2001, dated 2003).

Like-named read-outs stand apart in the source and are kept apart here.

Series [1] has as its system cerebellar granule cells. The note with it: for concentration at which maximal effects on granule cell viability/lysis were observed / concentration at which significant effects on granule cell viability/lysis were initially detected: MTS reduction and LDH release, independent of culture condition (GCSF or NB-B27). As to the method:
Viability of the cerebellar granule cell culture was assessed using CellTiter 96® AQueous One Solution Cell Proliferation reagent (Promega, G3580). This colorimetric assay employs, 3-(4,5-dimethylthiazol-2-yl)-5-(3-carboxymethoxyphenyl)-2-(4-sulfophenyl)-2H-tetrazolium (MTS) and the electron coupling reagent, phenazine ethosulfate (PES). […] Briefly, prior to each MTS assay, 100 μl of media was removed from each well, transferred to new 96-well plate for subsequent LDH release analysis. To each cell containing well, 20 μl of MTS tetrazolium reagent was added to the remaining media (100 μl). Culture plates were incubated in the humidified incubator at 37° C. and in 5% CO2 for 2 hours. Following incubation the quantity of formazan product present was determined by measuring the absorbance at 490 nm using a VERSAmax® microplate reader and SOFTmax PRO software (Molecular Devices).
(§1) Granule cell cultures were seeded at an initial density of 1×10^5 cells per well and maintained in GCSF culture media for 7 day in vitro prior to toxicant exposure. On the day of treatment, L-Glutamate, tert-butyl-hydroperoxide (TBHP), hydrogen peroxide (H2O2), ionomycin (Sigma), and MK-801 (Calbiochem, San Diego) were prepared at required concentration in the appropriate media. Cultures were exposed to toxicants for 24 hours prior to viability analysis. Cultures receiving MK-801 were pretreated for 10 minutes prior to addition of L-glutamate, and negative control cultures were treated with fresh media. For dose-dependence of oxidative-induced injury H2O2 and TBHP stock solutions were serially diluted in media to 100× concentrations immediately before each experiment. The concentration of the H2O2 stock solution was determined spectrophotometrically before each experiment based on its absorbance using the equation: C=(Ab240/ε)×DF; where C is the concentration of H2O2 (mM), Ab240 is absorbance at 240 nm, ε is the extinction coefficient (0.0394 mM^−1 cm^−1), DF is the dilution factor, and the path-length of the spectrophotometer is 1 cm. Comparative analysis of granule cell viability/lyses in GCSF and NB-B27 was assessed using the MTS reduction and LDH release assays as described above.

Series [2] relates to cerebellar granule cells. Briefly: LDH release assay of granule cell death after toxicant exposure. The format is cell-based, rat. How it is done:
The lactate dehydrogenase (LDH) released into the media was determined using Cyto Tox96® non-radioactive cytotoxicity assay (Promega). In this calorimetric assay, LDH converts lactate and nicotinamide adenine dinucleotide (NAD^+) to pyruvate and NADH, respectively. This initial reaction is coupled to a second reaction where diaphorase converts iodo-nitro-tetrazolium salt and NADH to a red colored formazan compound and NAD^+ respectively. Briefly, 50 μl of assay buffer was added to each 100 μl sample of media removed from each well prior to MTS analysis. Samples were then incubated in the dark for 30 minutes at room temperature, and then 50 μl of a stop solution (1M acetic acid) was added into each well and the absorbance at 490 nm was measured as above. Positive control samples of bovine heart LDH (800 units/ml; lot 11455502, Promega) were serially diluted into a final volume of 200 μl and assayed as described above.
as §1

The subject of series [3] is non-neuronal cells in cerebellar cultures. Briefly: Inhibition of non-neuronal cell proliferation in primary cerebellar cultures (visual inspection, staining). The format is cell-based, rat. As to the method:
Based on the calculated cell numbers, cerebellar cells were serially diluted in an appropriate volume of culture media and seeded into flat-bottom 96-well tissue culture plates pre-coated with poly-L-lysine (Becton Dickinson, Bedford, Mass.). The numbers of cerebellar cells seeded ranged from 6,250 to 400,000 cells per well (0.32 cm^2) in a final volume of 200 μl. Cultures were maintained in a humidified incubator in 5% CO2 at 37° C.
After 7-30 day in vitro, cultures were washed 3 times with phosphate buffered saline (PBS) and fixed for 20-30 minutes with 4% paraformaldehyde in 0.1M sodium phosphate buffer (pH 7.4; PB). Following fixation, cells were washed 3 times with PBS, and either stained with 1% methylene blue (Sigma) in deionized water for 5 minutes and destained with deionized water or permeablized for immunostaining with 0.2% Triton X-100 in PBS. Permeablized cells were washed 3 times with PBS, incubated for 1 hour in 5% normal horse serum in PB and then incubated overnight at 4° C. with a glial fibrillary acidic protein (GFAP) antiserum (1:5000 dilution; Dako, Carpintea, Calif.). Following incubation with primary antiserum, cells were extensively washed with PBS plus 0.1% Tween-20 and immunoreactivity was visualized with NiCl/3,3′-diaminobenzidine (DAB) using the avidin-biotin-complex (ABC) method (Vector Elite-universal; Vector Laboratories, Burlingame, Calif.). […]

The mark [4] stands for this setting: 125 μM TBHP, 24 hours, 7 DIV cultures in GCSF.
Where [5] appears, read: 125 μM TBHP, 24 hours, 7 DIV cultures in NB-B27.
[6] abbreviates: 400 μM H2O2, 24 hours, 7 DIV cultures in GCSF.
Where [7] appears, read: 400 μM H2O2, 24 hours, 7 DIV cultures in NB-B27.

Regarding `CC(C)(C)OO` [TBHP, tert-butyl-hydroperoxide], the MTS-reduction is reported as 37.9±0.8 % of control in series [1] (setting [4]) and 43.7±1.9 % of control in series [1] (setting [5]). Further, in series [1] (24 hours), the “concentration at which maximal effects on granule cell viability/lysis were observed” value worked out at 125 µM. In series [1] (24 hours), the “concentration at which significant effects on granule cell viability/lysis were initially detected” value is 62.5 µM. Also, the LDH-release in series [2] (setting [4]) is recorded as 125.4±1.4 % of control; in series [2] (setting [5]), 122.7±5.6 % of control.

With `C[C@H](CCC(=O)O)C[C@H](C)C[C@H](C)C(=O)/C=C(\O)[C@H](C)C[C@H](C)C/C=C/[C@@H](C)[C@@H](O)[C@@H](C)[C@@H](O)C[C@@H]1CC[C@@](C)([C@H]2CC[C@@](C)([C@@H](C)O)O2)O1` [ionomycin], in series [1] (ionomycin treatment (10 nM per FIG. 6 legend), GCSF), the “average maximal decrease in viability (MTS reduction)” value was 56±5 % of control.

For the molecule cytosine β-D-arabinofuranoside [AraC], the “non-neuronal cell types in cultures” value in series [3] (10 μM AraC added after 24 hour in vitro, NB-B27 or GCSF) is on record as “less than 5%”. For the same molecule, the “cells with morphological phenotype of small cerebellar granule cell neurons” value in series [3] (10 μM AraC added after 24 hours, 96-well plates, visual inspection) is given as over 90%.

Consider `N[C@@H](CCC(=O)O)C(=O)O` [L-glutamate, L-Glutamate], for which, in series [1] (500 μM L-glutamate, 24 hours, GCSF, representative single experiment), the “granule cell viability (MTS reduction)” value is listed as 56.8±2 % of control cultures.

Regarding `OO` [H2O2, hydrogen peroxide], in series [1] (100 μM H2O2, 24 hours, GCSF, single experiment n=8), the “neuronal cell death (MTS reduction)” value is listed as “Statistically significant levels of neuronal cell death”. Further, the MTS-reduction in series [1] (setting [6]) is listed as 41.5±1.0 % of control; in series [1] (setting [7]), 47±1.2 % of control. Moreover, the “concentration at which maximal effects on granule cell viability/lysis were observed” value in series [1] (24 hours) is 400 µM. Further, the “concentration at which significant effects on granule cell viability/lysis were initially detected” value in series [1] (24 hours) came out at 200 µM. Further, the LDH-release is 136.9±2.8 % of control in series [2] (setting [6]) and 125±5.0 % of control in series [2] (setting [7]).

As to `C[C@]12N[C@H](Cc3ccccc31)c1ccccc12` [MK-801], the “viability of cultures pretreated with antagonist prior to L-glutamate exposure (MTS reduction)” value in series [1] (10 μM MK-801 pretreatment 10 minutes, then 500 μM L-glutamate 24 hours, GCSF) is on record as “not significantly different from the mock-treated control cultures”.
